In publication PMC5355302, “Arg-Leu-Tyr-Glu tetrapeptide inhibits tumor progression by suppressing angiogenesis and vascular permeability via VEGF receptor-2 antagonism” (Oncotarget, 2016):
Each block holds one molecule with its values, some of them ahead of it. Where a SMILES comes first, the peptide text is derived from it. Where no end group is shown, it is not given here.

Key:
HCT116 tumors = assay: HCT116 human colon cancer xenograft in nude mice; format: in vivo, mouse; conditions: RLYE 0.5 mg/kg/day i.p., CPT-11 17 mg/kg every 5th day, alone or combined, n = 7 per group
Experimental: Figure 7 RLYE inhibits tumor growth and metastasis by suppressing tumor angiogenesis A. Representative tumors isolated from 29-days-old B16F1 tumor-bearing C57BL/6J mice injected i.p. with saline or RLYE (1 mg/kg) every day. B. Tumor weight on day 29 after injection of B16F1 cells (n = 10 mice per group). C. […] D. Representative images for metastatic nodules of the lungs isolated from C57BL/6J mice, which were injected i.v. with B16F10 melanoma cells and treated with saline or RLYE for 3 weeks. E. Quantification of the number of lung metastatic nodules. […] Representative tumors from 30-day-old HCT116 tumor-bearing mice. (G) Tumor burden was measured every 3 days (n = 8 mice per group). (H) Functional vascularization was quantified by measuring hemoglobin concentration in HCT116 tumor tissues (n = 5). […]
Figure 8 RLYE inhibits vascular leakage and enhances tumor chemosensitivity A. Endothelial cell permeability was determined by diffusion of [^14C]-sucrose through HUVEC monolayers treated with 20 ng/ml of VEGF alone or in combination with RLYE (n = 3). B. Phosphorylation of VE-cadherin was determined in cell lysates of HUVECs treated with 20 ng/ml of VEGF alone or in combination with RLYE. […] Immunostaining of VE-cadherin in endothelial monolayer was determined by confocal microscopy. […] Tumor vascular leakage was determined by the Evans blue method (E and F) or FITC-dextran image assay (G and H). […]

HUVECs [1] = assay: MTT cell viability, HUVECs; format: cell-based, human; conditions: 24 h
Experimental: (§1) Mouse melanoma B16F1 and B16F10 cells and human HCT116 colon cancer cells were obtained from American Type Culture Collection (Manassas, VA) and cultured in RPMI medium supplemented with 10% FBS, 1 mM sodium pyruvate, 10 mM 4-(2-hydroxyethyl)-1-piperazineethanesulfonic acid, and 100 U/ml penicillin-streptomycin in a humidified atmosphere of 5% CO2 at 37°C. Human umbilical vein endothelial cells (HUVECs) were maintained and cultured in M199 as described previously, and only passages 2-7 were used for all experiments. Human multiple myeloma IM-9 and RPMI 8226 cells were obtained from Korean Cell Line Bank (Seoul, Korea). The cells were cultured in RPMI-1640 medium in a humidified CO2 incubator. Cell viability or cytotoxicity was evaluated by 3-[4,5-cimethylthiazol-2-yl]-2,5-diphenyl tetrazolium bromide (MTT, Sigma-Aldrich) assay.
(§2) www.impactjournals.com/oncotarget/ Oncotarget, Supplementary Materials 2016
(§3) B. cells were treated the indicated concentration of RLYE for 24 h. Cell viability was determined by MTT assay. […]

HCT116 cells = assay: MTT cell viability, HCT116 cells; format: cell-based, human; conditions: up to 30 nM, 24 h
Experimental: as §1, §2, §3

half-life in blood = format: in vivo; conditions: unpublished data
[2] = half-life in culture medium; format: in vitro ADME; conditions: M199 culture medium with 10% heat-inactivated FBS; unpublished data
HUVECs [3] = assay: FACS binding of FITC-conjugated RLYE to HUVECs; design: species or system human; conditions: FITC-conjugated RLYE 15 nM, n = 5
Experimental: (§4) Figure 5 RLYE binds to endothelial cells through binding to VEGFR-2 A and B. HUVECs were incubated with FITC-conjugated RLYE (RL, 15 nM) before or after treatment with VEGF-A (VE, 100 ng) for 30 min. Cells were analyzed by flow cytometry (A) and quantified (B). Data are the means ± SD (n = 5). **P < 0.01 versus RLYE alone. C and D. HUVEC lysates were incubated with biotinylated RLYE (Bio-RLYE, 0.15 or 1.5 nM), followed by precipitation with streptavidin-agarose beads. The red arrow indicates VEGFR-2 protein bands on a longer exposure film. The precipitates were separated by SDS-PAGE. VEGFR-2 or VEGFR-1 expression was assessed by Western blot analysis. E. HUVECs were treated with or without VEGF-A (10 ng/ml) for 30 min, followed by incubation with FITC-conjugated RLYE (100 ng/ml, green). Cells were incubated with a TRITC-conjugated CD31 antibody (1:100, red) or DAPI (blue). Confocal microscopy was performed for analyzing binding of RLYE on HUVECs. Scale bar, 10 μm.
HUVECs cultured for 24 h after plating in 60 mm-culture dishes. Cells from subconfluent cultures were gently detached from wells with PBS containing 5 mM EDTA, washed three times with PBS, and resuspended in PBS containing 2% FBS/0.1% bovine serum albumin. Thereafter, they were incubated with FITC-conjugated RLYE (15 nM) before or after treatment with VEGF (100 ng/ml) for 30 min on ice, fixed in 2% paraformaldehyde, and analyzed by flow cytometry in a fluorescence-activated cell sorter (FACSCalibur, Becton Dickinson, Franklin Lakes, NJ).

HUVECs [4] = assay: confocal microscopy of FITC-RLYE binding to HUVECs; design: species or system human
Experimental: as §4, with “Confocal microscopy was performed for analyzing binding of RLYE on HUVECs. Scale bar, 10 μm.” left out
For immunocytochemistry, HUVECs were grown to confluence on glass coverslips coated with 2% gelatin and treated with or without VEGF-A (10 ng/ml) for 30 min, followed by incubation with FITC-RLYE (100 ng/ml). […] Images were photographed and analyzed using a confocal fluorescence microscope. Nuclear staining was performed with 4’, 6-diamidino-2-phenylindole (DAPI, 1 ng/ml), and apoptotic cells were detected using a terminal deoxynucleotidyl transferase dUTP nick end labeling (TUNEL) kit (Roche, Korea).

endothelial cells = test system: endothelial cells; design: method as in PMID 15013002; conditions: cited from earlier work
VEGF-A [5] = conditions: cited from earlier work
Excerpt: Therefore, the VEGF-A/VEGFR-2 system is widely considered a main target of the therapeutic treatment for tumor angiogenesis. Ligation of VEGFR-2 triggers strong proangiogenic signals including p38MAPK/ERK, Src/FAK, and Akt/eNOS through VEGFR-2 phosphorylation, which promote angiogenesis and VEGFR-2 internalization.

VEGF-A [6] = conditions: read-out: IC50 for VEGF-A; endothelial cell culture conditions; cited from earlier work
VEGFR-2 = conditions: read-out: IC50 for VEGFR-2; endothelial cell culture conditions; cited from earlier work
[7] = biological target: human recombinant VEGF receptor-2 (rhVEGFR-2) (human) (UniProt P35968); assay: SPR; rhVEGFR-2 immobilised on an activated CM5 chip; RLYE at different concentrations flowed in HBS-EP (10 mM Hepes, 150 mM NaCl, 3 mM EDTA, 0.005% Tween-20) at 25 μl/min, 120 sec injection; Kd from a steady state binding model
human recombinant VEGF receptor-2 (rhVEGFR-2) (human), sequence (P35968 20-764): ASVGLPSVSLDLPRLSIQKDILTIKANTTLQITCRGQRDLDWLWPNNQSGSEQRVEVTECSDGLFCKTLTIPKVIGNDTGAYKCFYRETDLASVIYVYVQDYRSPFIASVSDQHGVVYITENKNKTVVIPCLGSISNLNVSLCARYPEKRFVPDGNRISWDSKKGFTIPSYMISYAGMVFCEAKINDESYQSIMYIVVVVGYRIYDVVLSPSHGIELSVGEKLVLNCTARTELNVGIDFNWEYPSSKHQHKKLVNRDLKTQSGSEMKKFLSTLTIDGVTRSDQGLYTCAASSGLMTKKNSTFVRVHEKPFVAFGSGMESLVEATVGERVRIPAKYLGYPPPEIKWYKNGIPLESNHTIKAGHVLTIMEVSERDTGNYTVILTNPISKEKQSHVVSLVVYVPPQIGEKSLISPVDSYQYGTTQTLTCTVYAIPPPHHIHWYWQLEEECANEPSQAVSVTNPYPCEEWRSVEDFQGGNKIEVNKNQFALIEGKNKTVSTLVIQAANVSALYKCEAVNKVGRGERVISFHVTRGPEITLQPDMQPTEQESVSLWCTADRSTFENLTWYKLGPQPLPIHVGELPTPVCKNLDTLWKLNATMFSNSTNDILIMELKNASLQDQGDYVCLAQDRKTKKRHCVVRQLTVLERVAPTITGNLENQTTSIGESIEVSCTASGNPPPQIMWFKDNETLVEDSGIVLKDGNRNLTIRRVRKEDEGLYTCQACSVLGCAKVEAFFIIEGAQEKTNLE

Molecule: CCc1c2c(nc3ccc(OC(=O)N4CCC(N5CCCCC5)CC4)cc13)-c1cc3c(c(=O)n1C2)COC(=O)[C@]3(O)CC [CPT-11, irinotecan]
- tumor growth in mice bearing HCT116 colon tumor (HCT116 tumors): significantly inhibited tumor growth

- half-life in blood (half-life in blood): 1.2 h
- half-life [2]: > 1080 min
Molecule: CC(C)C[C@H](NC(=O)[C@@H](N)CCCNC(=N)N)C(=O)N[C@@H](Cc1ccc(O)cc1)C(=O)N[C@@H](CCC(=O)O)C(=O)O [RLYE, Arg-Leu-Tyr-Glu] (H-RLYE-OH)
- cytotoxicity against HUVECs (HUVECs [1]): did not induce any cytotoxicity
- cytotoxic effect on cultured HCT116 cells (HCT116 cells): no cytotoxic effect

- binding to the surface of control HUVECs (HUVECs [3]; 30 min on ice, flow cytometry): bound
- blocking of binding to HUVECs by post-incubation with VEGF-A (HUVECs [3]; VEGF 100 ng/ml after the peptide): not
- binding to HUVECs after pre-incubation with VEGF-A (HUVECs [3]; VEGF 100 ng/ml before the peptide): blocked
- binding to the surface of HUVECs (confocal) (HUVECs [4]; FITC-conjugated RLYE 100 ng/ml): bound
- binding to the surface of HUVECs after pretreatment with VEGF-A (confocal) (HUVECs [4]; VEGF-A 10 ng/ml 30 min, then FITC-conjugated RLYE 100 ng/ml): effectively blocked
Molecule: FITC-conjugated RLYE: fluorescein isothiocynate (FITC)-conjugated RLYE, purchased from Peptron (also: FITC conjugated, position not given here)

Molecule: Lys-Leu-Tyr-Asp [KLYD, tetrapeptide derived from the kringle 5 of plasminogen]
- inhibitory effect on endothelial cell proliferation (endothelial cells): potent inhibitory effect

Molecule: aflibercept: soluble decoy VEGFR-1
- affinity to VEGF-A relative to bevacizumab (VEGF-A [5]): several hundred-fold greater

Molecule: bevacizumab: anti-VEGF antibody
- IC50 (VEGF-A [6]): 0.15 nM

Molecule: ramucirumab: fully humanized monoclonal antibody bound to the extracellular domain of VEGFR-2
- IC50 (VEGFR-2): 1 to 2 nM

- Kd [7]: 9 µM
B1: Arg-Leu-Tyr-Glu tetrapeptide (RLYE) (peptide)
peptide: RLYE
